This note sets out measurements from patent US11173124B2, “Oral delivery of GLP-1 peptide analogs” (MEDIMMUNE LIMITED, priority 2017, dated 2021).

Structures are written as SMILES. Starred links: 1 amine or outer side, 2 acyl side, 3 side chain; linkers in the order of their positions; H or OH if unused. Non-standard residues stand in square brackets, D forms with d. Residues, ends and D or L forms follow the SMILES beside them. Groups on a side chain read outwards from the residue. *: point of attachment. γGlu = O=C(O)[C@H](CCC(=O)[*:2])N[*:1]; αMeF = C[C@](N)(Cc1ccccc1)C(=O)O; αMeK = C[C@](N)(CCCCN)C(=O)O; Lauroyl = CCCCCCCCCCCC(=O)*; αMeS = C[C@](N)(CO)C(=O)O; AEEA = NCCOCCOCC(=O)O; Aib = CC(C)(N)C(=O)O

The series is described as follows: Canine study, compositions around 6.5:1 Na CDC:PG ratio in enterically coated tablets (Example 23, Table 30). It is filed as in vivo. The conditions noted are these: dogs, oral enterically coated tablet.
Setting [1] is: 4:1 ratio, 120 mg Na CDC and 30 mg PG, 3 mg MEDI7219.
[2] abbreviates: 14:1 ratio, 140 mg Na CDC and 10 mg PG, 3 mg MEDI7219.
[3] abbreviates: 29:1 ratio, 145 mg Na CDC and 5 mg PG, 3 mg MEDI7219.

Description: The following materials and methods were used for quantitative measurements of GLP-1 peptide analogs in plasma (e.g., rat or dog plasma) in the Examples below. These methods used a SCIEX 6600 TripleTOF mass spectrometer coupled with a Shimadzu ultra-high performance liquid chromatography (UHPLC). The specificity of the method was ensured by the retention time, the selected mass for Single-Reaction-Monitoring (SRM) mode, and the selected fragment mass in MS/MS (MS^2) mode.
The plasma extraction procedure used the following steps: • Samples, standards, and quality controls were incubated until they reached room temperature. They were then incubated at 60° C. for 2 minutes and cooled down to room temperature, vortexed, and spun down. • 70 μL of samples, standards, or quality controls were transferred into a 1 mL 96-well plate. • In each well, 420 uL of Precipitation Solution was added. The plate was sealed and shook for 10 minutes on a plate shaker at 600 rpm. • The plate was centrifuged at 18G, 2500 RFC, 20° C. for 10 minutes. • The plate was carefully removed, and the upper clear supernatant was extracted with a 200 uL multichannel pipette into a new 96-well protein lobind plate. The supernatant was extracted twice for each well, and the supernatants were combined. • The Plate was placed in TurboVap and the extracted supernatant was dried completely with heated (65° C.) Nitrogen gas at 60 Fahrenheit (Fh). • After the plate was completely dry, the plates were covered and incubated at room temperature for at least 30 minutes until the plate returned back to ambient temperature. • 150 μL of Reconstitution solution was added to each well. The plate was covered with a pierceable place seal and shaken at 600 rpm for 10 minutes. • The samples were submitted to the LC-MS/MS on the same day of Preparation
Quantification of the data obtained using the high resolution SCIEX 6600 instrument was then performed as follows: • For the quantification, extracted ion chromatograms (XIC) using 0.2 Da m/z extraction window centered on the accurate mass of each fragment ion were generated. Accurate mass was calculated from the structure of the compound. […] Concentrations of the target analyte in unknown samples were obtained by regression analysis using linear fits of peak areas vs. analyte concentration, weighted 1/(concentration). • The quality of the assay was controlled by the quality control samples. • Either Experiment 1 or Experiment 2 could be used for the quantification of the GLP-1 peptide analogs in high resolution mode.

Turning to `CCCCCCCCCCCC(=O)N[C@@H](CCC(=O)NCCOCCOCC(=O)NCCOCCOCC(=O)NCCCC[C@H](NC(=O)[C@H](C)NC(=O)[C@@H](NC(=O)[C@](C)(Cc1ccccc1)NC(=O)[C@H](CCC(=O)O)NC(=O)[C@](C)(CCCCN)NC(=O)[C@H](C)NC(=O)[C@H](C)NC(=O)[C@H](CCC(=O)O)NC(=O)CNC(=O)[C@H](CCC(=O)O)NC(=O)[C@H](CC(C)C)NC(=O)[C@H](CCCCNC(=O)COCCOCCNC(=O)COCCOCCNC(=O)CC[C@H](NC(=O)CCCCCCCCCCC)C(=O)O)NC(=O)[C@H](CO)NC(=O)[C@](C)(CO)NC(=O)[C@@H](NC(=O)[C@H](CC(=O)O)NC(=O)[C@H](CO)NC(=O)[C@@H](NC(=O)[C@](C)(Cc1ccccc1)NC(=O)[C@H](CO)NC(=O)CNC(=O)[C@H](CCC(=O)O)NC(=O)C(C)(C)NC(=O)[C@@H](N)Cc1c[nH]cn1)[C@@H](C)O)C(C)C)[C@@H](C)CC)C(=O)N[C@H](C(=O)N[C@H](C(=O)N[C@@H](CCC(=O)O)C(=O)NCC(=O)NCC(N)=O)C(C)C)C(C)C)C(=O)O` [MEDI7219, Free-H-[AIB]-EGS-[αMePhe]-TSDV-[αMeSer]-SK[(PEG2)2-γE-Lauroyl]-LEGEAA-[αMeLys]-E-[αMePhe]-IAK[(PEG2)2-γE-Lauroyl]-VVEGG-amide] (H-H[Aib]EGS[αMeF]TSDV[αMeS]SK([AEEA-AEEA-γGlu-Lauroyl])LEGEAA[αMeK]E[αMeF]IAK([AEEA-AEEA-γGlu-Lauroyl])VVEGG-NH2), the F runs as follows: under setting [1], about 5.7%; under setting [2], about 4.6%; under setting [3], about 3.8%; (No PG formulation, 150 mg Na CDC) about 0.6%. Besides, under setting [1], the “PK variability (CV) at C max” value came out at 52.8%. The “PK variability at C max” value under setting [2] is 84.4% and the “PK variability at C max” value under setting [3] came to 135.3%.
